In patent US20100196907A1, “MARKERS TO PREDICT AND MONITOR RESPONSE TO AURORA KINASE B INHIBITOR THERAPY” (ABBOTT LABORATORIES, priority 2009, published 2010):

System: SW620 tumors
Assay: intratumor pharmacokinetics, SW620 xenografts
Format: in vivo, mice
Conditions: single i.p. 100 mg kg^−1
Procedure: C.B.-17 scid-bg (scid-bg) or C.B.-17 scid (scid) mice were obtained from Charles River Laboratories (Wilmington, Mass., USA) at 5-6 weeks of age and used for studies when greater than 8 weeks of age and/or about 20 grams in size. All animal studies were conducted in a specific pathogen-free environment in accordance with the Internal Institutional Animal Care and Use Committee (IACUC), accredited by the American Association of Laboratory Animal Care under conditions that meet or exceed the standards set by the United States Department of Agriculture Animal Welfare Act, Public Health Service policy on humane care and use of animals and the NIH guide on laboratory animal welfare. Overt signs of dehydration, lack of grooming, lethargy, greater than 15% weight loss as well as tumor volume greater then 20% body weight were used to determine tumor end point. SW620 cell lines were obtained from the ATCC (Manassas, Va.) and cultured according to their recommendations without antibiotics and routinely tested for Mycoplasma and confirmed to be microbe-free by infectious microbe PCR amplification test (IMPACT; Missouri Research Animal Diagnostic Laboratory, Columbia, Mo.) prior to in vivo inoculation. […] Two bisecting diameters were measured with calipers and tumor volumes were estimated from the formula: (length×width^2)/2. […]

CCN(CCO)CCCOc1ccc2c(Nc3cc(CC(=O)Nc4cccc(F)c4)[nH]n3)ncnc2c1 [AZD1152 HQPA]
period of tumor concentration above threshold: at least 24 hours
